Laboratory results taken from the kinase profiling compilation of Christmann-Franck et al. (2016).

Tests used:
CAMKK2 (human) = CAMKK2 (human) (UniProt Q96RR4)
RPS6KA3 KD1 KD2 (human) = RPS6KA3 KD1 KD2 (human) (UniProt P51812)
TAOK1 (human) = TAOK1 (human) (UniProt Q7L7X3)
CAMK2G (human) = CAMK2G (human) (UniProt Q13555)
MAP3K4 (human) = MAP3K4 (human) (UniProt Q9Y6R4)
ULK3 (human) = ULK3 (human) (UniProt Q6PHR2)
BMP2K (human) = BMP2K (human) (UniProt Q9NSY1)
SIK3 (human) = SIK3 (human) (UniProt Q9Y2K2)
MAP4K2 (human) = MAP4K2 (human) (UniProt Q12851)
TNK2 (human) = TNK2 (human) (UniProt Q07912)
SMG1 (human) = SMG1 (human) (UniProt Q96Q15)
PRKCQ (human) = PRKCQ (human) (UniProt Q04759)
MAP3K11 (human) = MAP3K11 (human) (UniProt Q16584)
TEC (human) = TEC (human) (UniProt P42680)
TBK1 (human) = TBK1 (human) (UniProt Q9UHD2)
SYK (human) = SYK (human) (UniProt P43405)
HCK (human) = HCK (human) (UniProt P08631)
MERTK (human) = MERTK (human) (UniProt Q12866)
CSK (human) = CSK (human) (UniProt P41240)
MAP4K5 (human) = MAP4K5 (human) (UniProt Q9Y4K4)
MAP3K1 (human) = MAP3K1 (human) (UniProt Q13233)
ABL2 (human) = ABL2 (human) (UniProt P42684)
PTK2B (human) = PTK2B (human) (UniProt Q14289)
PRKAA1 (human) = PRKAA1 (human) (UniProt Q13131)
ACVR1B (human) = ACVR1B (human) (UniProt P36896)
BTK (human) = BTK (human) (UniProt Q06187)
EPHB1 (human) = EPHB1 (human) (UniProt P54762)
MAP3K3 (human) = MAP3K3 (human) (UniProt Q99759)
NLK (human) = NLK (human) (UniProt Q9UBE8)
CLK2 (human) = CLK2 (human) (UniProt P49760)
EIF2AK1 (human) = EIF2AK1 (human) (UniProt Q9BQI3)
FRK (human) = FRK (human) (UniProt P42685)

Chain of ACVR1B (human) (P36896 whole entry, looked up): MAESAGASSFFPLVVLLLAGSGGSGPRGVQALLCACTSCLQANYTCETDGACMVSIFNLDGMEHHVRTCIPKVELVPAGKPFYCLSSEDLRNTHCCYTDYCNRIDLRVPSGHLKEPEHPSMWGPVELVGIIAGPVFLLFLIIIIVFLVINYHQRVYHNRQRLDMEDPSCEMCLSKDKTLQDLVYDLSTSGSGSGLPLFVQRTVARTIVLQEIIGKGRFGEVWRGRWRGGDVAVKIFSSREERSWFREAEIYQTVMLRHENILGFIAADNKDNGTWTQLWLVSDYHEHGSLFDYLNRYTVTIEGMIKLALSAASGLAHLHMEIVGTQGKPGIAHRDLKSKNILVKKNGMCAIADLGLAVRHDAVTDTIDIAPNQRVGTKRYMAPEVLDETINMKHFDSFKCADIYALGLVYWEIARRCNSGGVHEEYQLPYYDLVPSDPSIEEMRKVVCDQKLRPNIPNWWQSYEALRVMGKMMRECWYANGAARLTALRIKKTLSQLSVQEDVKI
Chain of MAP4K5 (human) (Q9Y4K4 whole entry, looked up): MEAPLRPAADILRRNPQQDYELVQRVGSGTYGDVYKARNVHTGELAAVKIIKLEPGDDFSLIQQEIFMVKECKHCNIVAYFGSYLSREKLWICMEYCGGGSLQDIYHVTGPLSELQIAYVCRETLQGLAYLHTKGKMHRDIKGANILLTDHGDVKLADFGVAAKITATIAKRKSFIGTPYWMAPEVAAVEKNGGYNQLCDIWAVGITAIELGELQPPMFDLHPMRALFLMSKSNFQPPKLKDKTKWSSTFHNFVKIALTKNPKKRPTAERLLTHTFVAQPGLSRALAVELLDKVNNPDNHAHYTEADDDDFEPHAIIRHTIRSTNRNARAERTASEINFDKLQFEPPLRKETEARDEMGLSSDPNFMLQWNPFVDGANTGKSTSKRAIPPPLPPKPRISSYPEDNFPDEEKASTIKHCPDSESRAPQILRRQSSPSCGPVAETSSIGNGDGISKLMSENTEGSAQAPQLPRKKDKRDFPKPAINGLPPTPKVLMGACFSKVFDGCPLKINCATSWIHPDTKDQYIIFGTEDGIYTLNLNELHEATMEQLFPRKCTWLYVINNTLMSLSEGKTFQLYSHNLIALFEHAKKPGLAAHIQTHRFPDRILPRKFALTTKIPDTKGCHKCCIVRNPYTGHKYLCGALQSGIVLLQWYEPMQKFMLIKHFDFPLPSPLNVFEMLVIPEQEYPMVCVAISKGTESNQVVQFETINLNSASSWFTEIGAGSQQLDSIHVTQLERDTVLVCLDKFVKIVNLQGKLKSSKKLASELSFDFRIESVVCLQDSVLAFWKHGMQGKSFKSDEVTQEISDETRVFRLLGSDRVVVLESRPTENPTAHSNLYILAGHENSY
Chain of PRKCQ (human) (Q04759 whole entry, looked up): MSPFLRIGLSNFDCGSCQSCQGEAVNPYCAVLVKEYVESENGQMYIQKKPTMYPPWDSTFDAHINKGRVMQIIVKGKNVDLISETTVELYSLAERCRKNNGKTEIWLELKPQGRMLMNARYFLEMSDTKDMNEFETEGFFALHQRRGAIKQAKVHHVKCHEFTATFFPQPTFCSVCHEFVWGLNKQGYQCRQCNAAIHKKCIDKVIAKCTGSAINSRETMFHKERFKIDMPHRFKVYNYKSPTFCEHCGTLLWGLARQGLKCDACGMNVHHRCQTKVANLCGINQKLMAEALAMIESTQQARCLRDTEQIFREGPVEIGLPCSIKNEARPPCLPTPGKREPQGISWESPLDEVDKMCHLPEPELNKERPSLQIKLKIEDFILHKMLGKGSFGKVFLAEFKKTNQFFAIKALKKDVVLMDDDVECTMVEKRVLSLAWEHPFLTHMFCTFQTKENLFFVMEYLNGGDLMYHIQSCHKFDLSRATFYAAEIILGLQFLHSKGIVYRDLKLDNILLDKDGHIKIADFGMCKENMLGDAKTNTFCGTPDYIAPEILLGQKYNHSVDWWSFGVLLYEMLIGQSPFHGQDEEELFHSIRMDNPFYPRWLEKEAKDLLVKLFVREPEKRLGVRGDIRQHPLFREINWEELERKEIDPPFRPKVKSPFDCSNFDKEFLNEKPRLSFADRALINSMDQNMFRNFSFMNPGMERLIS
Chain of TEC (human) (P42680 whole entry, looked up): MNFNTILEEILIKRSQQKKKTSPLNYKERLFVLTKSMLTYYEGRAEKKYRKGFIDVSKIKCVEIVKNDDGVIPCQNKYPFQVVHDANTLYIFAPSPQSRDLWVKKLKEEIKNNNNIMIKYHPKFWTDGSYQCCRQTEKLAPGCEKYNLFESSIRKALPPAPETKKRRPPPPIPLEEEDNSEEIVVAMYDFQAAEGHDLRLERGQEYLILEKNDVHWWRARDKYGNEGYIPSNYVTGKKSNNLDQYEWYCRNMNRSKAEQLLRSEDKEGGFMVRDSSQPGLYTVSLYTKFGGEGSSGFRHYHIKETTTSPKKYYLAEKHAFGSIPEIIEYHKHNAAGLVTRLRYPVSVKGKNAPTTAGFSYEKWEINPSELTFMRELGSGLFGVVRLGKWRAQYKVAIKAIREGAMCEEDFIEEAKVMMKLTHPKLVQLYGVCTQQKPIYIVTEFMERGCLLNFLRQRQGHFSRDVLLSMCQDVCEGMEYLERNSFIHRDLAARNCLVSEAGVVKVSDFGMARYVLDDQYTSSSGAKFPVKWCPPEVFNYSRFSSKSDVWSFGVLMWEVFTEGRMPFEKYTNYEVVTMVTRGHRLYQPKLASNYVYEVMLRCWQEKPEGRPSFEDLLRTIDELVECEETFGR
Chain of BTK (human) (Q06187 whole entry, looked up): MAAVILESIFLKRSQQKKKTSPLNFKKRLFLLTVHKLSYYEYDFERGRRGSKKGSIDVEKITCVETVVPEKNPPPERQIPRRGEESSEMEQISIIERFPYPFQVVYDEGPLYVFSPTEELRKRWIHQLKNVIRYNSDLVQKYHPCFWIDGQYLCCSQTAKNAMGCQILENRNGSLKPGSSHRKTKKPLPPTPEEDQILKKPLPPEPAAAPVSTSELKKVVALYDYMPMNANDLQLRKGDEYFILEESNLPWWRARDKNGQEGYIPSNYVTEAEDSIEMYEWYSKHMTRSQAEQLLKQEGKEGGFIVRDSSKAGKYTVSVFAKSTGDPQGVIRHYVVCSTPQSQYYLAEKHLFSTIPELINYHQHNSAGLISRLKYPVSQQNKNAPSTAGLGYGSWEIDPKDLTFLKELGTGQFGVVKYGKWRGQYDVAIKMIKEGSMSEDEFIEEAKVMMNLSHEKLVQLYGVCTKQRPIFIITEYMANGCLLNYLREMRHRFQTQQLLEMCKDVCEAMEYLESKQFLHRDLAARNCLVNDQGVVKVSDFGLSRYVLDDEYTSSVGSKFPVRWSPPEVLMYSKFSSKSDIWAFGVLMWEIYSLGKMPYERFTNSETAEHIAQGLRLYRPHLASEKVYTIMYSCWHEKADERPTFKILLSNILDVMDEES
Chain of SIK3 (human) (Q9Y2K2 whole entry, looked up): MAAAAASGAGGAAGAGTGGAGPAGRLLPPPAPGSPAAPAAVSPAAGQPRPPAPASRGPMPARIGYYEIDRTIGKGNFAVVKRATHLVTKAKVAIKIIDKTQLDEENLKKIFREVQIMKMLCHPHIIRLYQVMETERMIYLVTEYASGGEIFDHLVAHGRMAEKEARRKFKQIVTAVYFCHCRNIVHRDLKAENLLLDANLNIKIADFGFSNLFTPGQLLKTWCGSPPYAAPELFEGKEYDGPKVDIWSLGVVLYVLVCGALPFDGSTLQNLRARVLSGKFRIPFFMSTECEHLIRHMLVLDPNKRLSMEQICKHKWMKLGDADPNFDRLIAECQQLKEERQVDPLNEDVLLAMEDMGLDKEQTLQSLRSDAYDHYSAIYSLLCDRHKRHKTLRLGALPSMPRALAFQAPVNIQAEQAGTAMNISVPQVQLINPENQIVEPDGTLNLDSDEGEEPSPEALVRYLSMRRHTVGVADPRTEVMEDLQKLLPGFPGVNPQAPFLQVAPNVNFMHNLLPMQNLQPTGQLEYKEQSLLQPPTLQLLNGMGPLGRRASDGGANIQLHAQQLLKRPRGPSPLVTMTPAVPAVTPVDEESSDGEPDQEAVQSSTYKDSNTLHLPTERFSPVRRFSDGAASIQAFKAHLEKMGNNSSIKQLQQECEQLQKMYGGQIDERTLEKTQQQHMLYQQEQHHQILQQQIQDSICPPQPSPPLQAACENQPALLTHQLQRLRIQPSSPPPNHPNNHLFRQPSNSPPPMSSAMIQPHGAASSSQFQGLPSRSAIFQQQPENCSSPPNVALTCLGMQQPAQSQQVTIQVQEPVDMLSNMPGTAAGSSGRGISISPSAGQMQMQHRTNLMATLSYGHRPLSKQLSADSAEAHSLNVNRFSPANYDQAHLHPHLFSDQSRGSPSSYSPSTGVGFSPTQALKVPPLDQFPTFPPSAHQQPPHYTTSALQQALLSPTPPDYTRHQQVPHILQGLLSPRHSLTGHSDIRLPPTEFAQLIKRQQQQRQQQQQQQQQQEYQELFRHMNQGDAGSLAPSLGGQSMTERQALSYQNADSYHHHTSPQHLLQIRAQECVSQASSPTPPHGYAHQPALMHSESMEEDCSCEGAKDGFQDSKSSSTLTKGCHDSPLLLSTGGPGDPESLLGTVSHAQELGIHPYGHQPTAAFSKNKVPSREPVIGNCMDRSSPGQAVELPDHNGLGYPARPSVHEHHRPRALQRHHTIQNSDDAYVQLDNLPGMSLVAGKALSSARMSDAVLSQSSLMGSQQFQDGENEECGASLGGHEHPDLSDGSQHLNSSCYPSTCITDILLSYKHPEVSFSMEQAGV

COc1cc(Nc2c(C#N)cnc3cc(OCCCN4CCN(C)CC4)c(OC)cc23)c(Cl)cc1Cl
IC50 (CAMKK2 (human)): 1.43 µM
IC50 (RPS6KA3 KD1 KD2 (human)): 2.39 µM
IC50 (TAOK1 (human)): 2.63 µM
IC50 (CAMK2G (human)): 1.52 µM
IC50 (MAP3K4 (human)): 0.299 µM
IC50 (ULK3 (human)): 0.842 µM
IC50 (BMP2K (human)): 1.06 µM
IC50 (SIK3 (human)): 0.346 µM
IC50 (MAP4K2 (human)): 0.431 µM
IC50 (TNK2 (human)): 0.316 µM
IC50 (SMG1 (human)): 0.836 µM
IC50 (PRKCQ (human)): 1.56 µM
IC50 (MAP3K11 (human)): 1.54 µM
IC50 (TEC (human)): 0.567 µM
IC50 (TBK1 (human)): 1.26 µM
IC50 (SYK (human)): 0.745 µM
IC50 (HCK (human)): 0.58 µM
IC50 (MERTK (human)): 0.746 µM
IC50 (CSK (human)): 0.707 µM
IC50 (MAP4K5 (human)): 0.493 µM
IC50 (MAP3K1 (human)): 0.156 µM
IC50 (ABL2 (human)): 0.071 µM
IC50 (PTK2B (human)): 1.22 µM
IC50 (PRKAA1 (human)): 1.06 µM
IC50 (ACVR1B (human)): 0.091 µM
IC50 (BTK (human)): 0.175 µM
IC50 (EPHB1 (human)): 0.369 µM
IC50 (MAP3K3 (human)): 0.612 µM
IC50 (NLK (human)): 1.1 µM
IC50 (CLK2 (human)): 1.1 µM
IC50 (EIF2AK1 (human)): 1.22 µM
IC50 (FRK (human)): 0.507 µM
